Patent US10555522B2, “Long term methods of improving disease tolerance in plants” (priority 2016, dated 2020)

Legend:
[1] = test system: Downy Mildew (Pseudoperonospora cubensis); assay: Evaluation of Downy Mildew on cucumbers (field trial); assay type: in vivo
Description: In the instant example, symptoms of fungal infection with Downy Mildew (Pseudoperonospora cubensis) on cucumbers were evaluated. Plants were either treated with a composition comprising 1-MCP or left untreated.
Cucumber seedlings with approximately 3 leaves (approximately 3 inches tall) in seedling trays were either i) sprayed with 1-MCP (40 g ai/ha) or ii) left untreated. Contacting the plants was achieved using pressurized backpack sprayer. Two days later, the seedlings were transplanted into the open field near Futian Village, Wangsi Township, Dayi County, Sichuan, China, following normal commercial production practices.
(§1) Throughout the growing season, normal field production practices were performed, including fertilization, watering, and pest control (e.g., insecticide, fungicide, and herbicide) applications uniformly to the entire trial area. Approximately 5-6 weeks later, the percent disease severity ratings were made in each plot of plants that were treated with 1-MCP and the corresponding plot of plants that were untreated.

[2] = test system: Tomato Yellow Leaf Curl Virus (TYLCV); assay: Evaluation of Tomato Yellow Leaf Curl Virus on tomatoes (field trial); assay type: in vivo, Tomato Yellow Leaf Curl Virus (Begomovirus Geminiviridae); conditions: tomato var Florida 47; seedlings treated with 50 ppm ai by watering can three days before transplant; rated approximately 9 weeks later; P = 0.081
Description: In the instant example, symptoms of infection with Tomato Yellow Leaf Curl Virus (TYLCV) on tomatoes were evaluated. Plants were either treated with a composition comprising 1-MCP or left untreated.
(§2) Tomato seedlings (var Florida 47) with approximately 4 leaves (approximately 4 inches tall) in seedling trays were either i) sprayed with 1-MCP (50 ppm ai) or ii) left untreated. Contacting the plants was achieved using a watering can containing 1-MCP and water. Three days later, the seedlings were transplanted into the open field near Myakka City, Fla. following normal commercial tomato production practices.
(§3) Throughout the growing season, normal field production practices were performed, including fertilization, watering, and pest control (e.g., insecticide, fungicide, and herbicide) applications uniformly to the entire trial area. Approximately 9 weeks later, when the tomatoes had grown to approximately 3 feet tall, an infestation of Tomato Yellow Leaf Curl Virus was observed. In each plot of plants that were treated with 1-MCP, and the corresponding plot of plants that were untreated, counts were made of the number of plants showing symptoms of infection by TYLCV out of the total of 54 plants per plot.

[3] = test system: Early Blight (Alternaria tomatophila); assay: Evaluation of Early Blight on tomatoes (field trial); assay type: in vivo
Description: In the instant example, symptoms of fungal infection with Early Blight (Alternaria tomatophila) on tomatoes were evaluated. Plants were either treated with a composition comprising 1-MCP or left untreated.
(§4) Tomato seedlings (var Charger) with approximately 4 leaves (approximately 4-5 inches tall) in seedling trays were either i) sprayed with 1-MCP (1-10 g ai/ha) or ii) left untreated. Contacting the plants was achieved using pressurized backpack sprayer. Two days later, the seedlings were transplanted into the open field near Thonotosassa, Fla. following normal commercial tomato production practices.
as §1, with “Beginning approximately 3 weeks later, and continuing approximately 7 weeks later and approximately 11” for “Approximately 5-6”

[4] = test system: Beet Curly Top Virus (BCTV); assay: Evaluation of Beet Curly Top Virus on tomatoes (field trial, seedlings treated before transplantation); assay type: in vivo; conditions: tomato var Heinz 8504; seedlings sprayed with 4 gm ai/ha two days before transplant; rated approximately 8 weeks later; P = 0.065
Description: In the instant example, symptoms of infection with Beet Curly Top Virus (BCTV) on tomatoes were evaluated. Plants were either treated with a composition comprising 1-MCP or left untreated.
Tomato seedlings (var Heinz 8504) with 4 leaves (approximately 4 inches tall) in seedling trays were either i) sprayed with a treatment of 1-MCP (4 gm ai/ha) or ii) left untreated. Contacting the plants was achieved using a pressurized backpack spraying system containing 1-MCP and water. Two days later, the tomato seedlings were transplanted into the open field near Five Points, Calif. following normal commercial tomato production practices.
Throughout the growing season, normal field production practices were performed, including fertilization, watering, and pest control (e.g., insecticide, fungicide, and herbicide) applications uniformly to the entire trial area. Approximately eight (8) weeks later, when the tomatoes had grown to approximately 2 feet tall, an infestation of Beet Curly Top Virus (BCTV) was noted. Observations were taken on percentage of plants infected with BCTV in treated and untreated plots.

[5] = test system: Target Spot (Corynespora cassiicola); assay: Evaluation of Target Spot infection on tomatoes (field trial); assay type: in vivo; conditions: tomato var HM 1823; seedlings treated with 50 ppm ai by watering can three days before transplant; rated approximately 9 weeks later; P = 0.003
Description: In the instant example, symptoms of Target Spot […] infection (Corynespora cassiicola) on tomatoes were evaluated. Plants were either treated with a composition comprising 1-MCP or left untreated.
as §2, with “HM 1823)” for “Florida 47)”
as §3, with “Target Spot” for “Tomato Yellow Leaf Curl Virus”, “Target Spot” for “TYLCV”

Root Rot (Pythium sp.) = assay: Evaluation of Root Rot on peppers (field trial); assay type: in vivo
Description: In the instant example, symptoms of fungal infection with Root Rot (Pythium sp.) on peppers were evaluated. Plants were either treated with a composition comprising 1-MCP or left untreated.
Pepper seedlings with approximately 3 leaves (approximately 4-5 inches tall) in seedling trays were either i) sprayed with 1-MCP (1-10 g ai/ha) or ii) left untreated. Contacting the plants was achieved using a watering can containing a 50 ppm solution of 1-MCP. Three days later, the seedlings were transplanted into the open field near Clinton, N.C. following normal commercial pepper production practices.
Throughout the growing season, normal field production practices were performed, including fertilization, watering, and pest control (e.g., insecticide, fungicide, and herbicide) applications uniformly to the entire trial area.

[6] = test system: Bacterial Spot (Xanthomonas euvesicatoria and Xanthomonas perforans, Xanthomonas vesicatoria, and Xanthomonas gardneri); assay: Evaluation of Bacterial Spot on tomatoes (field trial); assay type: in vivo; conditions: tomato var Charger; seedlings sprayed with 1-40 g ai/ha two days before transplant; rated approximately 3 weeks later; p = 0.04
Description: In the instant example, symptoms of Bacterial Spot bacterial infection (Xanthomonas euvesicatoria and Xanthomonas perforans=[Xanthomonas axonopodis (syn. campestris) pv. vesicatoria], Xanthomonas vesicatoria, and Xanthomonas gardneri) on tomatoes were evaluated. Plants were either treated with a composition comprising 1-MCP or left untreated.
as §4, with “Tomato Seedlings” for “Tomato seedlings”, “1-MCP (1-40” for “1-MCP (1-10”
as §3, with “3” for “9”, “1½” for “3”, “tall” for “tall,”, “Bacterial Spot” for “Tomato Yellow Leaf Curl Virus”, “disease severity assessments” for “counts”, “made.” for “made of the number of plants showing symptoms of infection by TYLCV out of the total of 54 plants per plot.”

With `CC1=CC1` [1-MCP, 1-methylcyclopropene] the “percent disease (Downy Mildew) severity rating” value ([1]; cucumber seedlings sprayed with 40 g ai/ha two days before transplant, rated approximately 5-6 weeks later, p = 0.08) was 18%, the “reduction of percent disease (Downy Mildew) severity ratings versus untreated” value ([1]; cucumber, approximately 5-6 weeks later) was “approximately 47%” and the “Mean (plants showing symptoms of infection by TYLCV out of 54 plants per plot)” value [2] was 11%. The “reduction of average percent disease severity ratings for Early Blight versus untreated” value ([3]; across the three rating dates (approximately 3, 7, 11 weeks)) was “approximately 30%”, the “average percent disease severity rating for Early Blight” value ([3]; tomato var Charger, seedlings sprayed with 1-10 g ai/ha two days before transplant, average across approximately 3, 7 and 11 weeks later, p = 0.09) was 27.6% and the “Percentage of BCTV Infested Plants” value [4] was 4%. The “Percentage of Infected Plants (Target Spot)” value [5] was 19%, the “mortality and stunting of plants caused by Pythium” value (Root Rot (Pythium sp.); pepper seedlings treated with 1-10 g ai/ha (watering can, 50 ppm solution) three days before transplant, versus untreated) was “clearly reduced the mortality and stunting of plants” and the “plant appearance and Pythium pressure compared to untreated controls” value (Root Rot (Pythium sp.); pepper, two weeks after transplantation) was “slightly larger, darker green, and not as affected by Pythium pressure”. For the same molecule, the “Bacterial Spot disease severity assessment” value [6] was 4%.
